Consider six compounds from ChEMBL document CHEMBL4840382, “Novel Substituted Heteroaryl Compounds for Treating Huntington's Disease” (ACS Med Chem Lett, 2021).

Molecules are shown by their SMILES.

For this assay, the target named is Huntingtin (Homo sapiens, UniProt P42858). Briefly: Inhibition of endogenous Huntingtin protein (unknown origin) incubated for overnight in presence of MW1/MAB2166 monoclonal antibody by ELISA-based MSD electrochemiluminescence assay.
Huntingtin, sequence (P42858 whole entry): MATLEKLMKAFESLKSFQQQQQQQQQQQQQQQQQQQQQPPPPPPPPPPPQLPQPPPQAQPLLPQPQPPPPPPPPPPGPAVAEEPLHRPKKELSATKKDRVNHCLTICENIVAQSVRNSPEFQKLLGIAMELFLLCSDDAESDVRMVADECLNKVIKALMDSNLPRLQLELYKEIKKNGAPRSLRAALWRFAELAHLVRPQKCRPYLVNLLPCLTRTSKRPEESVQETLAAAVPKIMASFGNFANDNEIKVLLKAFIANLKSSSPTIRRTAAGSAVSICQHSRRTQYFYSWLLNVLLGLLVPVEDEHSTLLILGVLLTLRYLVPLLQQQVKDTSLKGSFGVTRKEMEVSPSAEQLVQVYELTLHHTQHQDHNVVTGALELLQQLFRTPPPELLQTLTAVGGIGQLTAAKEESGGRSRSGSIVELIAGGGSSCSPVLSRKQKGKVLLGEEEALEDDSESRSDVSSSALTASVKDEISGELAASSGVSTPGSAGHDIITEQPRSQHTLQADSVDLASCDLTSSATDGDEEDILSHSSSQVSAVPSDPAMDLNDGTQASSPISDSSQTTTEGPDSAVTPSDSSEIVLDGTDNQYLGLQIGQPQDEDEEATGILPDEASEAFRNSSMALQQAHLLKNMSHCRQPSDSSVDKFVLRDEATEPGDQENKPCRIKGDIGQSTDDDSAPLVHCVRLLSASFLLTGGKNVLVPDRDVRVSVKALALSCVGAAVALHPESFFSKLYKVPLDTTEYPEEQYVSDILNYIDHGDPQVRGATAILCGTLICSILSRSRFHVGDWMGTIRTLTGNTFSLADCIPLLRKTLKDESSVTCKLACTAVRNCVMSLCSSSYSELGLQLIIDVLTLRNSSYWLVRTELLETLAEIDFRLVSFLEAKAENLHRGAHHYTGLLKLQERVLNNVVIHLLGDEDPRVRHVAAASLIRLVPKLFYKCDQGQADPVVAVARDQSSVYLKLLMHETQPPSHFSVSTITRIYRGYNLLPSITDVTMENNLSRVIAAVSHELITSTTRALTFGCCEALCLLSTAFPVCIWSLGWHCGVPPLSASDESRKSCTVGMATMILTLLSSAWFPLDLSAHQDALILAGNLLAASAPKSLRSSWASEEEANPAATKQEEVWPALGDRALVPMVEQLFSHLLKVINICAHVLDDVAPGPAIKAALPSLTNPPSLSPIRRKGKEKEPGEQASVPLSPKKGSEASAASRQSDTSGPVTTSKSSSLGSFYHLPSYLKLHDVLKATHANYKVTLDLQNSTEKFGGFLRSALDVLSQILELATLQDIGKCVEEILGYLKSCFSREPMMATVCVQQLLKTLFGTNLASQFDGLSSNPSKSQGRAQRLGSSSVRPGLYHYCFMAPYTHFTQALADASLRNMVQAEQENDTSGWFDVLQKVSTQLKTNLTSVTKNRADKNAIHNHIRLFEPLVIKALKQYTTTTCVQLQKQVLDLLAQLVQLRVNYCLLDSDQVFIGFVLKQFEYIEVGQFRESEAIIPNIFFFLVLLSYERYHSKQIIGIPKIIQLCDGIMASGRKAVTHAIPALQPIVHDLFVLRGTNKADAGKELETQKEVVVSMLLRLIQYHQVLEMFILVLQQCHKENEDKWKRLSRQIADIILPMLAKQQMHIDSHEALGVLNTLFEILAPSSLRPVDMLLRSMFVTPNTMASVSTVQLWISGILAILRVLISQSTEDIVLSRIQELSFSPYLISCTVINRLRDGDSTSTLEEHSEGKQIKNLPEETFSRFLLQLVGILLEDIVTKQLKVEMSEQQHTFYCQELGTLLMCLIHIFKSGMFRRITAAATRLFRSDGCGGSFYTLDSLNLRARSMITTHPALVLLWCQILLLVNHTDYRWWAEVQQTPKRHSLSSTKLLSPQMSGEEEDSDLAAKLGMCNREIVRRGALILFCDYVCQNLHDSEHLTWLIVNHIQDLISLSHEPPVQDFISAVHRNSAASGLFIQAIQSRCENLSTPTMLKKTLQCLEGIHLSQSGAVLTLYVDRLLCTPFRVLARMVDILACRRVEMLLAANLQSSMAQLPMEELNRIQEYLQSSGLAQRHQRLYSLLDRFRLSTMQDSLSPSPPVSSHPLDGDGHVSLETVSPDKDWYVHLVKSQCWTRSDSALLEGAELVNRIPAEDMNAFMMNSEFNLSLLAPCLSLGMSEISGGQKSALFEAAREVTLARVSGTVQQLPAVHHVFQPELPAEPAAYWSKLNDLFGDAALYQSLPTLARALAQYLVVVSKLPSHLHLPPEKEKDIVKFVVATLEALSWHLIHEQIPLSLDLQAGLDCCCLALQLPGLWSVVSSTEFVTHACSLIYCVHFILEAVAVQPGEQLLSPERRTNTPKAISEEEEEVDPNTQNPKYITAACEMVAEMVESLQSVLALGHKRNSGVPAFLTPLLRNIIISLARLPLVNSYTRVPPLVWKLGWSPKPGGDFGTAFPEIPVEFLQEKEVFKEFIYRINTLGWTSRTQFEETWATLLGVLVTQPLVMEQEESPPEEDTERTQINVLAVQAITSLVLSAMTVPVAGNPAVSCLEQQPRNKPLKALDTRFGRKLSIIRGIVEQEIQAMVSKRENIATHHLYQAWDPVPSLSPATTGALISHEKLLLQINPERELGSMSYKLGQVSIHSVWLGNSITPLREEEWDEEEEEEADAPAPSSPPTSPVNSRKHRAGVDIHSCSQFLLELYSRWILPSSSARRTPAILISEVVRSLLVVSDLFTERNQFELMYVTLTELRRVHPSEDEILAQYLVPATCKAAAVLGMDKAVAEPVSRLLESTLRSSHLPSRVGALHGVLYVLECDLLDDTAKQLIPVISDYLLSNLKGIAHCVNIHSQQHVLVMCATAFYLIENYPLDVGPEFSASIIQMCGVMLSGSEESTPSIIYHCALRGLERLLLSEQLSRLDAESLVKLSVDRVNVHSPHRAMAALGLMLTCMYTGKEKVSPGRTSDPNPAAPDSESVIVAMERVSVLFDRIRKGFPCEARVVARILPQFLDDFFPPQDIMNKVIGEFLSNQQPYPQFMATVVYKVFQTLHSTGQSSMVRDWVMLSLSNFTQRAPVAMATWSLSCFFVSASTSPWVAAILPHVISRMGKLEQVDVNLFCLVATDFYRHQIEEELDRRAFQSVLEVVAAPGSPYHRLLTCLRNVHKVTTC
Usually IC50 stands for the point on the concentration scale where inhibition reaches its midpoint. As for `CC1CN(c2ncc(-c3ccc(-c4cc(F)c5nn(C)cc5c4)cc3O)nn2)CCN1` (stereo unspecified), the IC50 came out at 2.1 nM. Take `Cc1cn2cc(-c3ccc(-c4cnc(N5CCN[C@@H](C(C)C)C5)nn4)c(O)c3)ncc2n1`: the half-maximal inhibitory concentration (IC50) worked out at 2.3 nM. Turning to `Oc1cc(-c2c[nH]nc2F)ccc1-c1cnc(N2CCN[C@@H](C3CC3)C2)nn1`, the half-maximal inhibitory concentration (IC50) came to 2.1 nM. Consider `CCC1CN(c2ncc(-c3ccc(-c4cc(F)c5nc(C)cn5c4)cc3O)nn2)CCN1` (stereo unspecified), for which the half-inhibitory concentration (IC50) came out at 2.2 nM. For the compound `Cn1cc2cc(-c3ccc(-c4cnc(N5CCNC(CO)C5)nn4)c(O)c3)cc(F)c2n1` (stereo unspecified), the half-inhibitory concentration (IC50) came to 1.6 nM. Turning to `Cn1nc2cc(-c3ccc(-c4cnc(N5CCN[C@@H](C6CC6)C5)nn4)c(O)c3)cnc2n1`, the 50% inhibitory concentration (IC50) stood at 1.7 nM.
